According to patent US20050209157A1, “Short bioactive peptides and methods for their use” (priority 2001, published 2005):
Values joined by “and” are separate entries in the source; they are usually repeats but may differ in a detail not shown here. Equal values may be shown once. Read-outs that look alike come from different tables or passages of the source. No end group written: not given here.

Assays:
[1] = tested on: Pseudomonas aeruginosa 105663; format: cell-based; details: Table 9; in µg/mL
P. aeruginosa H374 [2] = format: cell-based, Pseudomonas aeruginosa; details: Table 9; in µg/mL
[3] = tested on: Pseudomonas aeruginosa 100609; format: cell-based; details: Table 9; in µg/mL
[4] = tested on: Pseudomonas aeruginosa H187; format: cell-based; details: in µg/mL
[5] = tested on: Candida glabrata ATCC15126; assay: Antimicrobial assays II, NCCLS broth microdilution MIC; format: cell-based; details: Table 8; in µg/mL
S. pyogenes M76 = assay: as above; format: cell-based, Streptococcus pyogenes; details: mean of three; 16 to 20 hours at 35° C.
WI38 = details: MTT, 24 hours with peptide; normal fibroblast line
[6] = tested on: yeast (Saccharomyces cerevisiae); assay: Antimicrobial assay I, yeast assay in RPMI 1640; format: cell-based; details: RPMI 1640 media
S. pyogenes ATCC19615 = assay: Antimicrobial assays II, NCCLS broth microdilution MIC; format: cell-based, Streptococcus pyogenes; details: mean of three, in µg/mL
in vitro [7] = details: human, WI38 normal lung fibroblast cells, LD50 WI38, WI38 normal lung fibroblast line, MTT, 24 hours with peptide
P. aeruginosa H774 = format: cell-based, Pseudomonas aeruginosa; details: P. aeruginosa H744; nalidixic acid + peptide at ¼ MIC; 0.5 or less = synergy
Method in brief: (§1)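 Efflux-mutant strains were tested with two-fold serial dilutions of chloramphenicol or nalidixic acid, alone and with peptide held at ¼ of its own MIC.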

P. aeruginosa H374 [8] = format: cell-based, Pseudomonas aeruginosa; details: for FIC Index: 0.5 or less = synergy
Method in brief: as §1

P. aeruginosa = format: cell-based, Pseudomonas aeruginosa; details: P. aeruginosa H744; MIC of nalidixic acid with peptide at ¼ MIC
Method in brief: as §1

[9] = tested on: Pseudomonas aeruginosa ATCC 9027; assay: Antimicrobial assay I, MIC by OD measurement; format: cell-based; details: 37° C. for 24 hours, absorbance 620 nm
[10] = tested on: Staphylococcus aureus ATCC 6538; assay: Antimicrobial assay I, MIC by OD measurement; format: cell-based; details: 37° C. for 24 hours, absorbance 620 nm
HeLaS3 = assay: Anti-cancer assay, MTT, LD50; format: cell-based; details: 24 hours with peptide, cervical carcinoma
Description: (§2) Numbers are LD50 values (μg/mL).

BMKC = assay: Anti-cancer assay, MTT, LD50; format: cell-based; details: BMKC cloned melanoma line, 24 hours with peptide
Description: as §2

MCF7 = assay: Anti-cancer assay, MTT, LD50; format: cell-based; details: MCF7 breast adenocarcinoma line, MTT, 24 hours with peptide
Description: as §2

PC3 = assay: Anti-cancer assay, MTT, LD50; format: cell-based; details: 24 hours with peptide, prostate adenocarcinoma
Description: as §2

H1299 = assay: Anti-cancer assay, MTT, LD50; format: cell-based; details: 24 hours with peptide, lung large cell carcinoma
Description: as §2

S. pneumoniae C719 = assay: Antimicrobial assays II, NCCLS broth microdilution MIC; format: cell-based, Streptococcus pneumoniae; details: mean of three, in µg/mL
S. epidermidis C621 = format: cell-based, Staphylococcus epidermidis; details: mean of three; 16 to 20 hours at 35° C.
in vitro [11] = format: cell-based, human; details: human, human red blood cells, pH 7, hemolytic assay, concentration at 50% hemolysis, 1 hour at 37° C.; read-out: LD50
S. aureus (MRSA) = format: cell-based, Staphylococcus aureus; details: mean of three; 16 to 20 hours at 35° C.
S. pneumoniae C718 = assay: Antimicrobial assays II, NCCLS broth microdilution MIC; format: cell-based, Streptococcus pneumoniae; details: mean of three

Compound: FAKKLAKLAKKALAL-NH2 [P39 (21)]
- MIC P. aeruginosa Tb 105663 [1]: 32
- MIC P. aeruginosa H374 (P. aeruginosa H374 [2]): 16
- MIC P. aeruginosa Tb 100609 [3]: 32
- MIC P. aeruginosa H187 ([4]; Table 8): 32
- MIC P. aeruginosa H187 ([4]; Table 9): 32
- MIC C. glabrata ATCC15126 [5]: 16

Compound: MPKWKVFKKIEKVGRNIRNGIVKAGPAIAVLGEAKALG-NH2 [P12 (5)]
- MIC P. aeruginosa Tb 105663 [1]: 8
- MIC P. aeruginosa H374 (P. aeruginosa H374 [2]): 8
- MIC P. aeruginosa Tb 100609 [3]: 8
- MIC P. aeruginosa H187 ([4]; Table 8): 16
- MIC P. aeruginosa H187 ([4]; Table 9): 16
- MIC C. glabrata ATCC15126 [5]: 128

Compound: FAKLLAKLAKKAL-NH2 [P54, FAKLLAKLAKKAL-NH2]
- S. pyogenes M76 MIC (S. pyogenes M76): 8 µg/mL
- WI38 LD50 (WI38): 97 µg/mL
- yeast (MIC or MFC) [6]: 50 µg/mL
- S. pyogenes MIC (S. pyogenes ATCC19615): 8
- CC50 at 24 h (in vitro [7]): 97 µg/mL
- FIC Index (P. aeruginosa H774): 1.25
- MIC Cm-comb. (P. aeruginosa H374 [8]; MIC of chloramphenicol with peptide at ¼ MIC): 16 µg/mL
- MIC Nal-comb. (P. aeruginosa H374 [8]; MIC of nalidixic acid with peptide at ¼ MIC): 5000 µg/mL
- FIC Index (P. aeruginosa H374 [8]; chloramphenicol + peptide at ¼ MIC): 1.25
- FIC Index (P. aeruginosa H374 [8]; nalidixic acid + peptide at ¼ MIC, FIC=0.25+MIC comb/MIC alone): 1.25
- MIC Nal-comb. (P. aeruginosa): 624 µg/mL
- paerug9027 (MIC) [9]: 50 µg/mL
- staph6538 (MIC) [10]: 5 µg/mL
- HeLaS3 LD50 (HeLaS3): 190 µg/mL
- LD50 BMKC (BMKC): 90 µg/mL
- LD50 MCF7 (MCF7): 60 µg/mL
- PC3 LD50 (PC3): 90 µg/mL
- H1299 LD50 (H1299): 80 µg/mL
- S. pneumoniae MIC (S. pneumoniae C719): 64
- S. epidermidis C621 MIC (S. epidermidis C621): 8 µg/mL
- HC50 at 1 h (in vitro [11]): 250 µg/mL
- S. aureus (MRSA) MIC (S. aureus (MRSA)): 16 µg/mL
- S. pneumoniae MIC (S. pneumoniae C718): 64 µg/mL

Compound: FAKKLAKKLKKLAKLALAK-NH2 [P41 (23)]
- MIC P. aeruginosa Tb 105663 [1]: 8
- MIC P. aeruginosa H374 (P. aeruginosa H374 [2]): 4
- MIC P. aeruginosa Tb 100609 [3]: 8
- MIC P. aeruginosa H187 ([4]; Table 8): 8
- MIC P. aeruginosa H187 ([4]; Table 9): 8
- MIC C. glabrata ATCC15126 [5]: 32

Compound: LPKWKVFKKIEKVGRNIRNGIVKAGPAIAVLGEAKALG-NH2 [P306 (150)]
- MIC P. aeruginosa Tb 105663 [1]: 32
- MIC P. aeruginosa H374 (P. aeruginosa H374 [2]): 8
- MIC P. aeruginosa Tb 100609 [3]: 16
- MIC P. aeruginosa H187 ([4]; Table 8): 16
- MIC P. aeruginosa H187 ([4]; Table 9): 16
- MIC C. glabrata ATCC15126 [5]: >128

Compound: FAKKLAKKLKKLAKKLAK-OH [P71 (47)]
- MIC P. aeruginosa Tb 105663 [1]: 16
- MIC P. aeruginosa H374 (P. aeruginosa H374 [2]): 4
- MIC P. aeruginosa Tb 100609 [3]: 16
- MIC P. aeruginosa H187 ([4]; Table 8): 8
- MIC P. aeruginosa H187 ([4]; Table 9): 8
- MIC C. glabrata ATCC15126 [5]: 32

Compound: FAKKLKKLAKLAKKL-NH2 [P46 (28)]
- MIC P. aeruginosa Tb 105663 [1]: 32
- MIC P. aeruginosa H374 (P. aeruginosa H374 [2]): 4
- MIC P. aeruginosa Tb 100609 [3]: 16
- MIC P. aeruginosa H187 ([4]; Table 8): 8 and 16
- MIC P. aeruginosa H187 ([4]; Table 9): 16
- MIC C. glabrata ATCC15126 [5]: 32

Compound: CC(C)C[C@H](NC(=O)[C@H](C)NC(=O)[C@H](CC(C)C)NC(=O)[C@H](C)NC(=O)[C@H](CC(C)C)NC(=O)[C@H](CCCCN)NC(=O)[C@H](C)NC(=O)[C@H](CC(C)C)NC(=O)[C@H](CCCCN)NC(=O)[C@H](CCCCN)NC(=O)[C@H](C)NC(=O)[C@H](CC(C)C)NC(=O)[C@H](CCCCN)NC(=O)[C@H](CCCCN)NC(=O)[C@H](CC(C)C)NC(=O)[C@H](CCCCN)NC(=O)[C@H](CCCCN)NC(=O)[C@H](C)NC(=O)[C@H](CC(C)C)NC(=O)[C@H](CCCCN)NC(=O)[C@H](CCCCN)NC(=O)[C@H](C)NC(=O)[C@@H](N)Cc1ccccc1)C(N)=O [P11 (4)]
- MIC P. aeruginosa Tb 105663 [1]: 16
- MIC P. aeruginosa H374 (P. aeruginosa H374 [2]): 16
- MIC P. aeruginosa Tb 100609 [3]: 16
- MIC P. aeruginosa H187 ([4]; Table 9): 16
